Target: T1, P protein from T. maritima (Thermotoga maritima, UniProt Q9X1H4)
T1 construct: GST (cleaved yes); made in house; host or cells: E. coli BL21(DE3)pLysS
T1 sequence (Q9X1H4 1-117): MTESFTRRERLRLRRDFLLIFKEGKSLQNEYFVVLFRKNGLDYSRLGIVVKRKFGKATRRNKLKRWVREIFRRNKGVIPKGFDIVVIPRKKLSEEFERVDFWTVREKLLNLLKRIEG
Test: Biolayer interferometry binding to immobilized His-tagged P protein
Conditions: BLI, P protein on Ni-NTA, 1:1 Langmuir model
Experimental: Immobilization of the His-tagged P protein from T. maritima at 0.05 mg/ml (3.4 μM) was performed on Ni-NTA biosensors. For the initial binding tests to the P protein, a compound concentration of 1 mM was used. Periods for each step of the assay were as follows: immobilization (400 s), wash (100 s), baseline establishment (100s), association (250 s), dissociation (250 s). For each titration curve, […] were used corresponding to the 125, 62.5, 31.25, 15.6 and 7.8 μM compound concentrations. Control biosensors were used to subtract non-specific binding of compounds to the biosensor surface. […] Kinetic binding parameters were calculated using Data Analysis 8.2 (ForteBio, Inc.). […]
Figure 5. […] Association and dissociation of the 5′ RNA leader to the P protein (TmP) is measured over time. […] P protein was immobilized on Ni-NTA biosensors after which its association and dissociation from indicated compounds were monitored. […] (C) Location of purpurin (green) on the T. maritima P protein as determined by X-ray crystallography (PDB code: 6MAX; see Supplementary Figure S19 and Supplementary Table S2). […]
Supplementary Figure 15. […] The pre-tRNA in buffer HAAMD (20 mM HEPES pH 7.4, 100 mM ammonium acetate, 10 mM MgCl2, 5% DMSO or 5% PEG 200) was measured against RNase P in concentrations ranging from 62.5 to 7.8 nM in a two-fold dilution series. […]

**Q.** For `O=C1c2ccccc2C(=O)c2c(O)c(O)cc(O)c21` [Purpurin, 1,2,4-trihydroxyanthraquinone], which Kd is on record?
**A.** The Kd was 6.8 µM.
